Experimental data: paper PMC7822874, “Chemoprotective antimalarials identified through quantitative high-throughput screening of Plasmodium blood and liver stage parasites” (Scientific Reports, 2021)
Like-named read-outs stand apart in the source and are kept apart here.

How the values were obtained:
[1] = tested on: P. berghei-ANKA-GFP-LucCON liver stage parasites in HepG2-A16-CD81EGFP cells; test: P. berghei liver stage Pb-Luc assay, Method 1 (UCSD, 1536-well); format: cell-based, Plasmodium berghei; settings: Plasmodium berghei, 48 h, average of 2 wells, 1536-well plate; for activity at 1 µM: nominal 1 uM (10 mM stock), […] for 15 mM, 1.2 uM for 12 mM, 2 uM for 20 mM stock; for activity at 3 µM: nominal 3 uM (10 mM stock), 4.5 uM for 15 mM, 3.6 uM for 12 mM, 6 uM for 20 mM stock; as to all read-outs here: reference of the scale not given here
[2] = tested on: Plasmodium falciparum Dd2 asexual blood stage parasites; test: microbe, parasite or virus in culture; design: species or system Plasmodium falciparum Dd2 in human erythrocytes; single determination (one 11-point concentration-response curve); settings: Plasmodium falciparum, DD2, Erythrocyte, 72 h; read-out: AC50
[3] = tested on: HepG2-A16-CD81EGFP cells
[4] = in vitro; settings: human
[5] = repeat 1, read-out: Pb-Luc signal, 1 uM, repeat 1
[6] = repeat 2, read-out: Pb-Luc signal, 1 uM, repeat 2
[7] = repeat 3, read-out: Pb-Luc signal, 1 uM, repeat 3
[8] = repeat 1, read-out: Pb-Luc signal, 3 uM, repeat 1
[9] = repeat 2, read-out: Pb-Luc signal, 3 uM, repeat 2
[10] = repeat 3, read-out: Pb-Luc signal, 3 uM, repeat 3
[11] = nominal 1 uM (10 mM stock), […] for 15 mM, 1.2 uM for 12 mM, 2 uM for 20 mM stock, average of 2 wells, repeat 2
[12] = nominal 3 uM (10 mM stock), 4.5 uM for 15 mM, 3.6 uM for 12 mM, 6 uM for 20 mM stock, average of 2 wells, repeat 2
[13] = HepG2-A16-CD81EGFP cells, uninfected

Row | Compound | activity at 1 µM [1, 5] [%] | activity at 1 µM [1, 6] [%] | activity at 1 µM [1, 7] [%] | activity at 3 µM [1, 8] [%] | activity at 3 µM [1, 9] [%] | activity at 3 µM [1, 10] [%] | AC50 [2] [µM] | HepG2 viability signal, 1 uM, repeat 2 [3, 11] [%] | HepG2 viability signal, 3 uM, repeat 2 [3, 12] [%] | viability at 48 h, 1 µM [4, 13] [%] | viability at 48 h, 3 µM [4, 13] [%] | HepG2 viability signal, 1 uM, repeat 2 ([3]; human, 48 h, 1 µM) [%] | HepG2 viability signal, 3 uM, repeat 2 ([3]; human, 48 h, 3 µM) [%] | viability at 48 h, 1 µM [4] [%] | viability at 48 h, 3 µM [4] [%]
1 | Cn1nnnc1SCCCNCc1cccc(OCc2ccccc2)c1 [NCGC00117957-01] | 78.6 | 108 | 127 | 58.9 | 94 | 87.5 | 9.44 | 101.95 | 103.35 | 97.9 | 101 |  |  |  | 
2 | COc1ccc2[nH]c(C[C@@H]3C[C@@H](C(C)C)[C@H](CNCc4ccccc4OC)C=C3C)nc2c1 [NCGC00392082-01] | 67 | 80.5 | 77.5 | 48.5 | 52 | 40.1 | 9.44 | 98.07 | 97.57 | 99 | 97.1 |  |  |  | 
3 | CCOC(=O)c1ccc2c(c1)[C@@H]1C=CC[C@@H]1[C@H](c1cccc(OC)c1OC)N2 [NCGC00100279-01] | 74.5 | 94.6 | 122 | 60.1 | 74.5 | 64.8 | 2.66 | 100.32 | 102.96 | 97.9 | 105 |  |  |  | 
4 | Cc1ccc(C)c(Oc2c(C(F)(F)F)oc3c(CN4CCN(C)CC4)c(O)ccc3c2=O)c1 [NCGC00141020-01] | 97.7 | 131 | 113 | 86 | 92.3 | 113 | 0.75 | 106.86 | 105.57 | 110 | 115 |  |  |  | 
5 | O=C(Nc1ccc2c(N3CCCC3)ncnc2c1)c1cccc(Br)c1 [NCGC00425495-01] | 70.5 | 86.1 | 85.5 | 34.5 | 39.4 | 21.9 | 0.668 | 101.29 | 98.07 | 101 | 97.5 |  |  |  | 
6 | Cc1ccc2oc(=O)c3cnn(CC(=O)Nc4cccc(C(F)(F)F)c4)c3c2c1 [NCGC00110933-01] | 106 | 124 | 113 | 86.9 | 117 | 100 | 2.66 | 99.44 | 101.21 | 94 | 94.8 |  |  |  | 
7 | CCc1cccc(-n2c(=O)c3cccnc3n2CC(=O)NCc2ccccc2)c1 [NCGC00128448-01] | 105 | 86.8 | 118 | 150 | 109 | 92.9 | 1.68 | 105.26 | 100.08 | 105 | 100 |  |  |  | 
8 | CCOc1ccccc1CN1CCCN(Cc2ccncc2)C(c2ccccc2)CC(=O)NCC1 (stereo not drawn) [NCGC00467181-01] | 105 | 89.1 | 111 | 102 | 80.2 | 86.4 | 6.68 | 96.74 | 96.24 | 101 | 96.8 |  |  |  | 
9 | CCC(CC)c1cc([C@H]2CN3CC[C@H]2C[C@@H]3CN[S+](=O)([O-])c2ccccc2C#N)nc(-c2ccncc2)n1 [NCGC00421343-01] | 72 | 78.5 | 103 | 49 | 52 | 66.9 | 1.5 |  |  |  |  | 105.19 | 104.55 | 110 | 110
